Test results taken from patent US11925649B2, “Treatments for diabetic neuropathy” (University of Manitoba, priority 2010, dated 2024).

Key:
[1] = system: sensory neurons from DRG of Sprague Dawley rat; test: Total neurite outgrowth at low concentrations of M1R antagonists (immunostaining); assay type: cell-based; conditions: 24 hr culture
Description: Sensory neurons from cervical, thoracic and lumbar DRG of an adult 3-4 month old male Sprague Dawley rat were isolated and dissociated using the method described in Example 1, and then were cultured for 24 h in serum-free and insulin-free F12 medium in the presence of modified N2 additives. […] Neurite outgrowth was then assessed after a culture period of 24 hr.
Total neurite lengths (i.e., the sum of the length of all neurites produced by an individual neuron) were assessed using an immunostaining method. […] Four images were captured per well and the replicate well frequency was set to n=6. The neuronal marker β-tubulin III (Sigma-Aldrich Canada Ltd.) was applied to formalin fixed cells. The marker was tagged with the fluorescent conjugate Alexa Fluor 488 (Invitrogen Canada Ltd.). Fluorescent images were collected using an Olympus IX71 inverted microscope with a 20×/0.45 PH1 [sequence] objective that was suitable for resolving images on plastic surfaces. […] Captured image fluorescence was thereafter converted to a grayscale 8-bit image to quantify total pixel volume. […] Total pixel volume of the neuron specific cell bodies and neurites were quantified. […] The net pixel volume was normalized against the number of neuronal cells per quantified field.

[2] = system: DRG sensory neurons from wildtype mice; test: Neurite outgrowth in sensory neuron cultures from wildtype mice; assay type: cell-based, mouse; conditions: 1 μM, 24 hr, low dose growth factors
[3] = system: STZ diabetic Swiss Webster mice; test: Restorative subcutaneous injections in diabetic mice; assay type: in vivo, mouse; conditions: 10 mg/kg daily s.c. from week 14
Description: Male out-bred Swiss Webster mice were made diabetic with 2 injections of 90 mg/kg STZ on consecutive days. […] The mice were maintained for 14 weeks after STZ injections. […] At 14 weeks, the diabetic mice were separated into two groups. The first was the untreated group of diabetic mice.
The function of the small sensory neurons in diabetic and non-diabetic groups of mice were assessed at 5 wks, 7 wks, 11 wks, and 14 wks after the STZ injections.

[4] = system: STZ-diabetic Sprague Dawley rats; test: Prevention of tactile allodynia and sensory nerve conduction slowing in diabetic rats; assay type: in vivo, rat
Description: Two groups of adult female Sprague Dawley rats were made diabetic with a single intraperitoneal injection of 55 mg/kg STZ. […] A third group of adult male rats was maintained as non-diabetic controls. The three groups of rats were monitored for the onset of diabetic painful neuropathy by measuring paw tactile response thresholds at weeks 5 and 9 of diabetes, as taught by Calcutt (1996, Pain: 68:293-299). […] Sensory nerve conduction velocity (SNCV) was measured in the same cohorts of rats after 8 weeks of diabetes by measuring under isoflurane anesthesia, the latency of H waves in the electromyogram of interosseous muscles following electrical stimulation of the sciatic nerve at the sciatic notch and Achilles tendon and then measuring the distance between the two points of nerve stimulation, as taught by Calcutt (J. Clin. Invest. 111:507-514, 2003).

[5] = system: AMP-activated protein kinase (AMPK); test: AMPK expression in DRG of STZ-diabetic mice (Western blot); assay type: in vivo, mouse; conditions: daily s.c. injections for 8 weeks, lumbar DRG
Description: Lumbar DRG were isolated and rinsed in ice-cold solution containing STE buffer (250 mmol/l sucrose, 10 mmol/l Tris-HCl, 1 mmol/l EDTA, pH 7.4), and then homogenized with a polytron homogenizer ([…] GmbH, Switzerland) using 3×7.5 s grinding pulses at 30 s intervals according to the method taught by Chowdhury et al. (2010, Diabetes 59: 1082-1091).
Quantitative Western blotting was performed as previously disclosed by Chowdhury et al (2010) and Fernyhough et al. (1999, Diabetes 48: 881-889). DRG homogenates of 5-10 μg of protein were resolved on a 10% SDS-PAGE gel and electroblotted onto nitrocellulose membrane. Blots were then blocked in 5% nonfat milk containing 0.05% Tween-20, rinsed in PBS (pH 7.4) and incubated with the following antibodies: polyclonal anti-phospho AMPK (1:1000, Cell Signaling Technology, Danvers, MA, US), polyclonal anti-PGC-1α (1:1000, Santa Cruz Biotechnology Inc, Santa Cruz, CA, USA) and monoclonal anti-ATP synthase β subunit (1:2000 dilution, Mitosciences, Eugene, OR). Extracellular signal-regulated kinase (ERK; 1:2000, Covance, Princeton, NJ, US) was probed as a loading control (previous studies show this protein to not change level of expression in DRG in diabetes). […]

COX IV = COX IV expression in DRG of STZ-diabetic mice (Western blot); assay type: in vivo, mouse; conditions: daily injections for 8 weeks
Description: Quantitative Western blotting was performed as described in Example 15. Quantitative Western blotting was performed as previously disclosed by Chowdhury et al (2010) and Fernyhough et al. (1999). DRG homogenates of 5-10 μg of protein were resolved on a 10% SDS-PAGE gel and electroblotted onto nitrocellulose membrane. Blots were then blocked in 5% nonfat milk containing 0.05% Tween-20, rinsed in PBS (pH 7.4) and incubated with the following antibodies: monoclonal anti-cytochrome c oxidase subunit 4 (COX IV; 1:1000, Mitosciences, Eugene, OR, US), monoclonal anti-NADH dehydrogenase (ubiquinone) iron-sulfur protein 3 (NDUFS3, 1:1000, Mitosciences, Eugene, OR, US). Extracellular signal-regulated kinase (T-ERK; 1:2000, Covance, Princeton, NJ, US) was probed as a loading control. The blots were rinsed, incubated in Western blotting Luminol Reagent (Santa Cruz Biotechnology Inc., Santa Cruz, CA, US) and imaged using a BioRad Fluor-S image analyzer (BioRad, Hercules, CA, US).

[6] = system: mitochondrial respiratory complex I; test: Mitochondrial respiratory complex I activity in DRG of STZ-diabetic mice; assay type: in vivo, mouse; conditions: daily injections for 8 weeks, lumbar DRG
Description: (§1) All measurements of enzymatic activities in lumbar DRG preparations were performed spectrophotometrically using a temperature controlled Ultrospec 2100 UV-visible spectrophotometer (Biopharmacia Biotech, Uppsala, Sweden) using the methods taught by Chowdhury et al. (2010). Complex I activity was measured as rotenone-sensitive NADH: cytochrome c reductase activity. Freshly prepared assay buffer (50 mmol/l K-phosphate pH 7.4, 1 mmol/l KCN, 100 μmol/l NADH) and 10 μg protein of DRG homogenate preparation were added to the cuvette and preincubated for 3 min at 25° C. After addition of 100 μmol/l oxidized cytochrome c, the reaction was followed for 2 minutes at 550 nm and then for 2 more minutes after addition of 25 μmol/l rotenone to allow calculation of the rotenone-sensitive Complex I activity. Complex IV activity was measured at 25° C. by monitoring the absorbance decrease of reduced cytochrome c at 550 nm as disclosed by Chowdhury et al. (2000, Clin. Chim. Acta 298: 157-173). […] Activity of the Krebs cycle enzyme, citrate synthase, was determined at 25° C. in medium containing 150 mmol/l Tris-HCl (pH 8.2), 0.02% laurylmaltoside, 0.1 mmol/l dithionitrobenzoic acid and 5 μg protein according to the method of Chowdhury et al (2007, Free Radic. Res. 41: 1116-1124). The reaction was initiated by addition of 100 μmol/l acetyl CoA and changes in absorbance at 412 nm were measured for 1 minute. […]

[7] = system: mitochondrial respiratory complex IV; test: Mitochondrial respiratory complex IV activity in DRG of STZ-diabetic mice; assay type: in vivo, mouse; conditions: daily injections for 8 weeks, lumbar DRG
Description: as §1

citrate synthase = test: Citrate synthase activity in DRG of STZ-diabetic mice; assay type: in vivo, mouse; conditions: daily injections for 8 weeks, lumbar DRG
Description: as §1

CN1CCN(CC(=O)N2c3ccccc3C(=O)Nc3cccnc32)CC1 [pirenzepine, 11-[2-(4-methylpiperazin-1-yl)acetyl]-5H-pyrido[2,3-b][1,4]benzodiazepin-6-1]
concentration that significantly increased total neurite outgrowth [1]: ≥ 0.003 µM | neurite outgrowth compared with LD control [2]: 2 fold | thermal latency ([3]; 21st week, 7 weeks of treatment): identical to the non-diabetic controls | IENF profiles ([3]; at 21 weeks): restored the IENF profiles to approximate those of the non-diabetic control mice | thermal latency ([3]; within 4 weeks of treatment (18 weeks)): significantly reduced thermal latency | paw tactile response thresholds ([4]; 10 mg/kg daily s.c., after 5 weeks of diabetes): significantly higher than vehicle treated diabetic rats | sensory nerve conduction velocity (SNCV) ([4]; 10 mg/kg daily s.c., after 8 weeks of diabetes): partially prevented this deficit | paw tactile response thresholds ([4]; 10 mg/kg daily s.c., week 9 of diabetes): not different from control rats | paw tactile allodynia ([4]; daily s.c., after 5 or 9 weeks of treatment): prevents paw tactile allodynia | expression of P-AMPK [5]: restored the expression | expression of T-AMPK [5]: restored the expression | expression of COX IV mitochondrial protein (COX IV): restored the expression | activity of mitochondrial respiratory complex I [6]: restored the deficits | activity of mitochondrial respiratory complex IV [7]: restored the deficits | activity of citrate synthase (citrate synthase): restored the deficits
